# Measurements: US20230404985A1, “METHODS OF TREATING TUMORS AND CANCERS HAVING DYSREGULATED WNT SIGNALING PATHWAYS” (ICAHN SCHOOL OF MEDICINE AT MOUNT SINAI, priority 2020, published 2023)
# Legend:
# [1] = test system: wild type (WT) healthy intestinal organoids; assay: TiterGlo viability of wild type intestinal organoids; format: cell-based, mouse; conditions: 72 hours post treatment
# Description: (§1) FIGS. 13A-13E show results pertaining to colorectal cancer. […] Data are column/gene normalized on a 0-100 scale with 0 being the lowest expression level and 100 the highest. FIG. 13D show full dose-response analysis of WNTinib's effects on the indicated organoid and tumoroid lines; viability was quantified using the TiterGlo assay after 72 hours. WT intestinal organoids are used as a control. […] Images of the intestine are shown as an example.
# (§2) First, an APC deletion (A) was introduced, then a KRAS^G12D overexpression (AK) in combination with a SMAD4^KO was introduced to affect the TGFbeta pathway (AKS). Last, P53 was deleted to mimic the latest stages of metastatic disease progression (AKSP).
# [2] = test system: H3K27me3 at promoters of Wnt and pluripotency genes; assay: ChIP-sequencing of H3K27me3 in MYC-CTNNB1 organoids; format: cell-based, mouse; conditions: WNTinib 1 μM, 24 hours
# Source text: Importantly, this was not seen in the MYC-Tp53 model organoids (FIG. 10C).
# [3] = test system: WNT pathway reporter; assay: GFP-based WNT reporter in stable MYC-CTNNB1 organoids; format: cell-based, mouse
# Source text: The library was further refined by performing dose-response curves on tumor organoids and primary human hepatocytes (FIG. 1C). In addition, stable MYC-CTNNB1 organoids expressing a GFP-based WNT reporter were created to assess direct transcriptional inhibition of the pathway. […] WNTinib was exemplary for its therapeutic index, as defined by its preferential activity in the CTNNB1-driven model as compared to hepatocytes.
# [4] = 14-day oral gavage tissue toxicity study; format: in vivo
# [5] = test system: AKS: APCKO::KRASG12D::SMAD4KO tumoroids; assay: TiterGlo viability of CRC tumoroids (AKS); format: cell-based, mouse
# Description: as §1, §2
smiles,measurement,setting,value
"CNC(=O)c1cc(Oc2ccc(NC(=O)Nc3ccc(C(F)(F)C(F)(F)F)cc3)c(F)c2)ccn1 [WNTinib, 4-(3-fluoro-4-(3-(4-(perfluoroethyl)phenyl)ureido)phenoxy)-N-methylpicolinamide]",viability of WT organoids,[1],without affecting that of WT organoids
same,H3K27me3 at promoters of genes of Wnt and pluripotency pathways,[2],upregulated the tri-methylation of lysine 27 on histone H3 (H3K27me3)
same,WNT-driven GFP expression (WNT pathway reporter),[3],only compound to downregulate WNT-driven GFP expression
same,"pathological changes in brain, heart, esophagus, large intestine","[4]; 60 mg/kg and 120 mg/kg oral gavage, 14 days",do not reveal pathological changes
same,toxicity in mouse intestine,"[4]; 14 days daily treatment, up to 4-fold the therapeutic dose",no toxicity was observed in mouse intestine
same,viability of AKS CRC line,[5]; 72 hours post treatment,reduce the viability
same,organoid morphology of AKS organoids,"[5]; WNTinib 3 μM, 72 hrs",induce a reversal of organoid morphology
